Measurements as given in patent US11999728B2, “Estrogen receptor modulators” (Recurium IP Holdings, LLC, priority 2020, dated 2024).

Assays:
MCF7 = experiment: Breast Cancer Cell Proliferation Assay (MCF-7), Cell Titer-Glo; type: cell-based; details: Homo sapiens, MCF7, 120 h, MCF7 cells, 5 days of compound exposure
How it was run: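 MCF7 cells in phenol red-free DMEM/F12 with charcoal-stripped FBS exposed 5 days to 10-point dilutions (10–0.000005 μM final), 17β-estradiol as control. Viability by CellTiter-Glo luminescence, background-subtracted and expressed relative to estrogen-only treated cells; day-1 pretreatment wells plated.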

[1] = Pharmacokinetic Determination (Mouse PK); type: in vivo, female CD-1 mice; details: female; for Kp at 2 h: CD-1, PO 10.0 mg/kg, Brain concentration vs plasma concentration at 2 hours post dosing, read-out: B/P ratio; for AUC(0-t) / clearance / half-life / Vd / bioavailability / Cmax / Tmax: CD-1, plasma; for Vd: read-out: Vdss; for bioavailability: PO 10.0 mg/kg vs IV 3.0 mg/kg
Experimental: Pharmacokinetic Determination
Grouping female CD-1 mice weighing 20-30 g randomly to three groups; one group was administered with test compound at a dose of 3.0 mg/kg by intravenous injection, the other two groups were administered with test compound at a dose of 10.0 mg/kg by oral. The formulation for IV groups is DMSO/PEG400/30% HP-β-CD (5/20/75) and the formulation for PO groups is 25% HP-β-CD in 25 mM citrate buffer (pH3.0). After administering, blood samples of intravenous injection group were collected at time points of predose, 0.0833, 0.25, 0.5, 1, 2, 4, 8, 12 and 24 h; blood samples of oral group were collected at time points of predose, 0.25, 0.5, 1, 2, 4, 8, 12, and 24 h. Both blood samples and brain samples were collected at 2 hours post dosing for the second PO group. Standard curve was plotted based on concentrations of the samples in a suitable range, the concentrations of test compounds in plasma samples and brain samples were determined by using LC-MS/MS. Pharmacokinetic parameters were calculated according to drug concentration-time curve using a noncompartmental method by WinNonLin (Phoenix™, version 6.1) or other similar software.

Row | IC50 (MCF7) [nM] | Kp at 2 h [1] | AUC(0-t) ([1]; IV, 3.0 mg/kg) [µM·h] | clearance ([1]; IV, 3.0 mg/kg) [mL/min/kg] | half-life ([1]; IV, 3.0 mg/kg) [h] | Vd ([1]; IV, 3.0 mg/kg) [L/kg] | bioavailability [1] [%] | AUC(0-t) ([1]; PO, 10.0 mg/kg) [µM·h] | Cmax ([1]; PO, 10.0 mg/kg) [nM] | Tmax ([1]; PO, 10.0 mg/kg) [h] | half-life ([1]; PO, 10.0 mg/kg) [h] | SMILES
1 | ≤ 25 | 11.4 | 1.33 | 85 | 5.13 | 16 | 29.6 | 1.31 | 224 | 0.5 | 3.95 | CCCN1CC(Oc2ccc([C@@H]3c4[nH]c5ccccc5c4C[C@@H](C)N3C34CC(C3)C4)cc2)C1 [Compound 39, (1R,3R)-2-(bicyclo[1.1.1]pentan-1-yl)-3-methyl-1-(4-((1-propylazetidin-3-yl)oxy)phenyl)-2,3,4,9-tetrahydro-1H-pyrido[3,4-b]indole]
2 | ≤ 25 | 6.84 | 1.49 | 66.1 | 7.29 | 17.9 | 59.2 | 2.94 | 840 | 0.5 | 7.38 | C[C@@H]1Cc2c([nH]c3ccccc23)[C@@H](c2ccc(N[C@@H]3CN(CCCF)C[C@H]3F)cc2)N1C12CC(C1)C2 [Compound 75, (3R,4R)—N-(4-((1R,3R)-2-(bicyclo[1.1.1]pentan-1-yl)-3-methyl-2,3,4,9-tetrahydro-1H-pyrido[3,4-b]indol-1-yl)phenyl)-4-fluoro-1-(3-fluoropropyl)pyrrolidin-3-amine]
3 | ≤ 25 | 13.5 | 1.47 | 64.2 | 11.5 | 49.6 | 70.5 | 3.46 | 261 | 1 | – | C[C@@H]1Cc2c([nH]c3ccccc23)[C@@H](c2ccc(NC3CN(CCCF)C3)cc2)N1C12CC(C1)C2 [Compound 40, N-(4-((1R,3R)-2-(bicyclo[1.1.1]pentan-1-yl)-3-methyl-2,3,4,9-tetrahydro-1H-pyrido[3,4-b]indol-1-yl)phenyl)-1-(3-fluoropropyl)azetidin-3-amine]
4 | ≤ 25 | – | 1.04 | 92 | 7.08 | 42.3 | 31.8 | 1.1 | 80 | 2 | 5.56 | C[C@@H]1Cc2c([nH]c3ccccc23)[C@@H](c2ccc(NC3CN(CCCF)C3)cc2)N1C12CC(CO)(C1)C2 (single isomer, unassigned) [Compound 58]
